Patent US11440887B2, “Substituted 1,2,3,4-tetrahydroquinolines as inhibitors of repair enzyme 8-oxoguanine deoxyribonucleic acid glycosylase activity” (The Board of Trustees of the Leland Stanford Junior …, priority 2017, dated 2022)

Columns and labels:
[1] = biological target: MTH1 (human MutT homolog 1) (Homo sapiens (Human), UniProt P36639); experiment: MTH1 assay (ARGO probe, Kinase-Glo); assay type: biochemical; conditions: 20 μM
Method: (30 min). After that, 5 μL of this reaction solution was mixed with 20 μL of Kinase-Glo. Immediately, luminescence was measured on a Thermo Fluoroskan Ascent FL fluorescence plate reader. (See, e.g., Ji, D., et al., J. Am. Chem. Soc. 2016, 138, 9005-9008, the disclosure of which is incorporated herein by reference.) The slope of initial rate (6 min) was calculated, and % of control was used for inhibition activity. MTH1 was purchased from Abcam, PNK buffer was purchased from New England Biolabs, and Kinase-Glo was purchased from Promega.

HeLa cells = experiment: MTT assay, HeLa; assay type: cell-based, human; conditions: 24 h
Method: Methods: HEK293T cells (concentration of 1.6×10^4 cells per well) and HeLa cells (concentration of 1.2×10^4 cells per well) were seeded to 96-well plate in supplemented DMEM culture medium (10% FBS, 100 U Pen./Strep.) and incubated for 30 h (HEK293T cells) and 16 h (HeLa cells) at +37° C. and 5% CO2. […] After the incubation period, 10 μL of the MTT labeling reagent (final concentration 0.5 mg/ml) was added to each well, and incubated at +37° C. and 5%. 100 μl of the solubilization solution was added into each well, and incubated for 20 h at +37° C. and 5%. Absorbance of the samples was measured by using a microplate reader Tecan Infinite M1000 at 550, and 650 nm. […] In the rest of the samples (10 μM, 1 μM, 100 nM, and 10 nM) concentration of DMSO was at the level of 1%. The controls were prepared: Ctrl—cells cultured only in the supplemented DMEM; Ctrl 5% DMSO—cells cultured in 5% DMSO in the supplemented DMEM; Ctrl 1% DMSO—cells cultured in 1% DMSO in the supplemented DMEM.

[2] = system: Caco-2 cells (clone C2BBe1); experiment: CACO-2 permeability assay; assay type: in vitro ADME; conditions: for Recovery: 5 μM, 120 minutes; for Papp AVG: average; for Papp R1: replicate 1
Method: Methods: Caco-2 cells (clone C2BBe1) were obtained from American Type Culture Collection (Manassas, Va.). Cell monolayers were grown to confluence on collagen-coated, microporous membranes in 12-well assay plates. Details of the plates and their certification are shown below. The permeability assay buffer was Hanks' balanced salt solution containing 10 mM HEPES and 15 mM glucose at a pH of 7.4. The buffer in the receiver chamber also contained 1% bovine serum albumin. The dosing solution concentration was 5 μM of test article in the assay buffer. Cell monolayers were dosed on the apical side (A-to-B) or basolateral side (B-to-A) and incubated at 37° C. with 5% CO2 in a humidified incubator. Samples were taken from the donor and receiver chambers at 120 minutes. Each determination was performed in duplicate. The flux of Lucifer yellow was also measured post-experimentally for each monolayer to ensure no damage was inflicted to the cell monolayers during the flux period. All samples were assayed by LC-MS/MS using electrospray ionization.

[3] = system: DUT (deoxyuridine 5′-triphosphate nucleotidohydrolase); conditions: 20 μM

With `NC(=O)c1cccc(-c2ccc(S(=O)(=O)Nc3ccc4c(c3)N(C(=O)C3CC3)CCC4)cc2)c1` [Compound 41] the “MTH1 enzyme activity in the presence of the inhibitor” value [1] was greater than 80%, the “cytotoxicity by MTT assay” value (HeLa cells; 10 nM to 10 μM) was “little or no cytotoxicity” and the “toxicity by MTT assay” value (HeLa cells; 100 μM) was 30-50%. The Recovery ([2]; A-to-B) was 65%, the “Papp AVG” value ([2]; A-to-B) was 12.5 10^−6 cm/s and the “Papp R1” value ([2]; A-to-B) was 14.2 10^−6 cm/s. The “Efflux Ratio” value ([2]; B-to-A / A-to-B) was 6.2, the Recovery ([2]; B-to-A) was 79% and the “Papp AVG” value ([2]; B-to-A) was 77.4 10^−6 cm/s. The “Papp R1” value ([2]; B-to-A) was 63.5 10^−6 cm/s and the “activity of compound against DUT (selectivity)” value [3] was “low”.
